We go through six compounds from publication PMC6355697, “Binding Specificity of Native Odorant-Binding Protein Isoforms Is Driven by Phosphorylation and O-N-Acetylglucosaminylation in the Pig Sus scrofa” (Frontiers in Endocrinology, 2019).

Each structure is given as a SMILES string. Like-named read-outs stand apart in the source and are kept apart here.

In test [1] the target is T1, OBP-native-iso1 (Sus scrofa, UniProt P81245).
T1 construct: Proteins were gently extracted from RM of pre-pubertal males of S. scrofa; from tissue; host or cells: RM (respiratory mucosa) extract of pre-pubertal male pigs, purified by two rounds of anion-exchange HPLC
T1 sequence (P81245 1-157): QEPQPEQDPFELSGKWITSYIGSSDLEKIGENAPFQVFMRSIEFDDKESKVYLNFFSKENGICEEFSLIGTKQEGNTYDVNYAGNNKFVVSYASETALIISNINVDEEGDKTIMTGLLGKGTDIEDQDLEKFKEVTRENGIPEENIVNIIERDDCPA
Kind of test: Fluorescence titration with the probe AMA. The test is classed as binding. To be noted: OBP-native-iso1 at 2.5 μM, 50 mM Tris buffer pH 7.8, estimated. As to the method:
(§1) Androstenone (3-keto-5α, 16-androstene), androstenol (3α-hydroxy-5α-androst-16-ene), testosterone (17β-hydroxy-3-oxo-4-androstene), palmitic acid (hexadecanoic acid), myristic acid (tetradecanoic acid), and AMA (1-aminoanthracene) were purchased from Sigma-Aldrich. UV-visible spectra were recorded on a Cary-100 double beam spectrometer (Varian) with a cell of 0.5 cm path length. The protein concentration was calculated by UV-visible spectroscopy, by using the molar extinction coefficient of 11,740 M^−1cm^−1 for OBP (calculated by the software “ProtParam tool” at www.expasy.org) at the maximum wavelength of absorption (280 nm). Steady state fluorescence measurements were performed on a Fluoromax-3 (Jobin-Yvon) spectrofluorimeter using a micro quartz cell (0.5 cm light-path) with a reflecting window. 1-Aminoantracene (AMA) was used as a fluorescent probe. The experimental conditions and data treatment have been described previously ([17]). The dissociation constant (Kd-AMA) of the OBP-AMA complex was calculated from the binding curve by fitting the experimental data with the use of the computer program Origin 7.5 (OriginLab Corporation). The affinities of the five ligands were measured in a competitive binding assay with AMA as the fluorescent probe. AMA was dissolved in 100% ethanol to yield a 1 mM stock solution. For protein titration, aliquots of AMA were successively added to the protein at 1 or 2.5 μM in 50 mM Tris buffer (pH 7.8) and emission spectra were acquired after a 15 min equilibration period. Competitive binding experiments were then carried out with different protein and ligand concentrations. The spectra were recorded 15 min after the ligand addition, and competition was monitored by following the decrease in intensity of fluorescence associated with the band of AMA bound to the protein. The apparent Kd values of the ligand-protein complexes were calculated as described in Brimau et al. ([17]).
(§2) We measured the affinity of the four native OBP isoforms for the five selected ligands under the same experimental conditions that were used previously for recombinant OBP isoforms ([17]). The four isoforms were first titrated with the fluorescent probe, AMA. OBP-native-iso3 was collected in smaller quantities than the 3 other isoforms and was used at a 1 μM concentration instead of 2.5 μM and saturated with 2 μM AMA, instead of 3.75 μM AMA. […] Two classes of isoforms, -iso1 and -iso2, bound the two fatty acids and not the steroids.

The target of test [2] is T2, OBP-native-iso2 (Sus scrofa, UniProt P81245).
T2 construct: Proteins were gently extracted from RM of pre-pubertal males of S. scrofa; from tissue; host or cells: RM (respiratory mucosa) extract of pre-pubertal male pigs, purified by two rounds of anion-exchange HPLC
T2 sequence (P81245 1-157): T1 sequence (P81245 1-157)
The experiment in a line: Fluorescence titration with the probe AMA. The test is classed as binding. The conditions noted are these: OBP-native-iso2 at 2.5 μM, 50 mM Tris buffer pH 7.8, estimated. Here is the method:
as §1, §2

The target in test [3] is T3, OBP-native-iso3 (Sus scrofa, UniProt P81245).
T3 sequence (P81245 1-157): T1 sequence (P81245 1-157)
Kind of test: Fluorescence titration with the probe AMA. The test is classed as binding. To be noted: OBP-native-iso3 at 1 μM, 50 mM Tris buffer pH 7.8, estimated. Here is the method:
as §1, §2

In test [4] the target is T4, OBP-native-iso4 (Sus scrofa, UniProt P81245).
T4 sequence (P81245 1-157): T1 sequence (P81245 1-157)
Kind of test: Fluorescence titration with the probe AMA. In kind it is binding. The conditions noted are these: OBP-native-iso4 at 2.5 μM, 50 mM Tris buffer pH 7.8, estimated. Here is the method:
as §1, §2

Test [5] has as its target T1, OBP-native-iso1. Kind of test: Competitive fluorescence binding assay with AMA as probe. The conditions noted are these: for IC50: OBP-native-iso1 2.5 μM saturated with 3.75 μM AMA, competitor 0 to 6 μM; for Kd: calculated dissociation constant from AMA competition. Here is the method: as §1, §2
(§3) Figure 6 Competitive binding assays of five selected ligands of biological relevance to native OBP isoforms from S. scrofa. (A) OBP-native-iso1; (B) OBP-native-iso2; (C) OBP-native-iso3; and (D) OBP-native-iso4. Proteins were used at 2.5 μM (A,B,D) or 1 μM (C) concentration and were saturated with 3.75 μM (A,B,D) or 2 μM (C) of the fluorescent probe 1-AMA. Competitors were added at increasing concentration from 0 to 6 μM (A,B) or to 15 μM (C,D).

The target in test [6] is T2, OBP-native-iso2. Described as above. To be noted: for IC50: OBP-native-iso2 2.5 μM saturated with 3.75 μM AMA, competitor 0 to 6 μM; for Kd: calculated dissociation constant from AMA competition. Here is the method: as §1, §2, §3
Test [7] deals with T3, OBP-native-iso3. The test is described as above. To be noted: for binding of ligand (in words) / Kd: OBP-native-iso3; for IC50: OBP-native-iso3 1 μM saturated with 2 μM AMA, competitor 0 to 15 μM; for Kd: calculated dissociation constant from AMA competition. As to the method: as §1, §2, §3
For test [8], the target named is T4, OBP-native-iso4. The test is described as above. To be noted: for binding of ligand (in words) / Kd: OBP-native-iso4; for IC50: OBP-native-iso4 2.5 μM saturated with 3.75 μM AMA, competitor 0 to 15 μM; for Kd: calculated dissociation constant from AMA competition. As to the method:
as §1, §2, §3

Test [9] deals with OBP-native-iso4. Described as above. On the set-up: species or system Sus scrofa. To be noted: ratio of Ka values. Here is the method: as §1, §2, §3
Test [10] concerns OBP-Pichia-iso3. On the set-up: method as in PMID 20589419. To be noted: OBP-Pichia-iso3, recombinant, phosphorylated only; cited from earlier work.

What is called Kd is a measure of binding affinity in units of concentration. Turning to `Nc1cccc2cc3ccccc3cc12` [AMA, 1-aminoanthracene], the Kd is 370 ± 20 nM in [1], 230 ± 20 nM in test [2], 840 ± 80 nM in test [3] and 500 ± 20 nM in test [4].
Usually IC50 stands for the concentration at which inhibition is half-maximal. Regarding `C[C@]12CC[C@@H](O)C[C@@H]1CC[C@@H]1[C@@H]2CC[C@]2(C)C=CC[C@@H]12` [Androstenol, 3α-hydroxy-5α-androst-16-ene], the IC50 was over 6000 nM in test [5] (read-out: IC50), over 6000 nM in [6] (read-out: IC50), 2590 nM in [7] (read-out: IC50) and 1430 nM in [8] (read-out: IC50). Besides, the “binding of ligand (in words)” value in [7] and in [8] was “bind” each time. Moreover, the Kd was 490 nM in test [7] and 160 nM in test [8]. Moreover, the “Ka value, OBP-native-iso4 compared with OBP-native-iso3” value in test [9] is “three times greater”.
Take `C[C@]12CCC(=O)C[C@@H]1CC[C@@H]1[C@@H]2CC[C@]2(C)C=CC[C@@H]12` [Androstenone, 3-keto-5α, 16-androstene]: the IC50 is over 6000 nM in test [5] (read-out: IC50), over 6000 nM in test [6] (read-out: IC50), 1280 nM in [7] (read-out: IC50) and 1890 nM in test [8] (read-out: IC50). In addition, the “binding of ligand (in words)” value in [7] and in test [8] was “bind” throughout. Also, the Kd is 230 nM in test [7] and 220 nM in [8].
`CCCCCCCCCCCCCC(=O)O` [Myristic acid, tetradecanoic acid]: the values for the IC50 in test [5] (read-out: IC50), in test [6] (read-out: IC50) and in [8] (read-out: IC50) were 330 nM, 1030 nM and over 15000 nM, respectively. Also, the Kd in test [5] (OBP-native-iso1) is 50 nM; in test [6] (OBP-native-iso2) it was 110 nM. For the same compound, in test [10], the “binding of ligand (in words)” value is on record as “to a lesser extent”.
As to `CCCCCCCCCCCCCCCC(=O)O` [Palmitic acid, hexadecanoic acid], the values for the IC50 in test [5] (read-out: IC50), in test [6] (read-out: IC50) and in [8] (read-out: IC50) were 1030 nM, 1510 nM and over 15000 nM, respectively. Also, the Kd in test [5] (OBP-native-iso1) and in test [6] (OBP-native-iso2) was 160 nM throughout. For the same compound, in test [10], the “binding of ligand (in words)” value was “not able to bind”.
In the case of `C[C@]12CC[C@H]3[C@@H](CCC4=CC(=O)CC[C@@]43C)[C@@H]1CC[C@@H]2O` [Testosterone, 17β-hydroxy-3-oxo-4-androstene, reference compound], the “binding of ligand (in words)” value in [5] (OBP-native-iso1), in test [6] (OBP-native-iso2), in test [7] and in test [8] was “None of the four native isoforms bound” each time. For the same compound, the IC50 in [5], in [6], in [7] and in test [8] was over 6000 nM throughout.
